Measured values from ChEMBL document CHEMBL3044753, “Polyamines May Modulate Both G Protein-Coupled Receptors and G Proteins” (Med Chem Res, 2004).
Active and inactive are the calls of the source. The rule behind the calls is not given here.

How the values were obtained:
Left cardiac atrium [1] = assay: Negative ionotropic activity in electrically-paced Cavia porcellus (guinea pig) left atrium measured immediately by isometric transducer analysis in presence of DPCPX; format: functional, tissue-based
Right cardiac atrium [2] = assay: Negative […] activity in electrically-paced Cavia porcellus (guinea pig) right atrium assessed as effect on rate measured immediately by isometric transducer analysis in presence of benzalkonium/prazosin relative to arecaidine propargyl ester; format: functional
Left cardiac atrium [3] = assay: Negative […] activity in electrically-paced Cavia porcellus (guinea pig) left atrium measured immediately by isometric transducer analysis in presence of benextramine; format: functional, tissue-based
Right cardiac atrium [4] = assay: Negative ionotropic activity in electrically-paced Cavia porcellus (guinea pig) right atrium measured after 60 min by isometric transducer analysis in presence of bupranolol; format: functional, tissue-based
Right cardiac atrium [5] = assay: Negative […] activity in electrically-paced Cavia porcellus (guinea pig) right atrium assessed as effect on rate measured immediately by isometric transducer analysis in presence of benzalkonium/prazosin; format: functional, tissue-based
Right cardiac atrium [6] = assay: Negative […] activity in electrically-paced Cavia porcellus (guinea pig) right atrium measured immediately by isometric transducer analysis in presence of […]; format: functional, tissue-based
Right cardiac atrium [7] = assay: Negative […] activity in electrically-paced Cavia porcellus (guinea pig) right atrium measured immediately by isometric transducer analysis in presence of benzalkonium; format: functional, tissue-based
Right cardiac atrium [8] = assay: Negative ionotropic activity in electrically-paced Cavia porcellus (guinea pig) right atrium assessed as effect on force measured immediately by isometric transducer analysis in absence of benzalkonium/prazosin; format: functional, tissue-based
Right cardiac atrium [9] = assay: Negative […] activity in electrically-paced Cavia porcellus (guinea pig) right atrium assessed as effect on force measured after 60 min by isometric transducer analysis in absence of benextramine/4-DAMP mustard relative to N-dodecyl lysine amide; format: functional
Left cardiac atrium [10] = assay: Negative ionotropic activity in electrically-paced Cavia porcellus (guinea pig) left atrium measured immediately by isometric transducer analysis in absence of benzalkonium/prazosin; format: functional, tissue-based
Right cardiac atrium [11] = assay: Negative […] activity in electrically-paced Cavia porcellus (guinea pig) right atrium measured immediately by isometric transducer analysis in presence of atropine; format: functional, tissue-based
[12] = target: T1, Muscarinic acetylcholine receptor M4 (Homo sapiens) (UniProt P08173); assay: Allosteric modulation of Homo sapiens (human) recombinant muscarinic M4 receptor expressed in CHO cells assessed as inhibition of carbachol-induced [35S]GTPgammaS binding; format: functional, cell-based
T1 sequence (whole entry): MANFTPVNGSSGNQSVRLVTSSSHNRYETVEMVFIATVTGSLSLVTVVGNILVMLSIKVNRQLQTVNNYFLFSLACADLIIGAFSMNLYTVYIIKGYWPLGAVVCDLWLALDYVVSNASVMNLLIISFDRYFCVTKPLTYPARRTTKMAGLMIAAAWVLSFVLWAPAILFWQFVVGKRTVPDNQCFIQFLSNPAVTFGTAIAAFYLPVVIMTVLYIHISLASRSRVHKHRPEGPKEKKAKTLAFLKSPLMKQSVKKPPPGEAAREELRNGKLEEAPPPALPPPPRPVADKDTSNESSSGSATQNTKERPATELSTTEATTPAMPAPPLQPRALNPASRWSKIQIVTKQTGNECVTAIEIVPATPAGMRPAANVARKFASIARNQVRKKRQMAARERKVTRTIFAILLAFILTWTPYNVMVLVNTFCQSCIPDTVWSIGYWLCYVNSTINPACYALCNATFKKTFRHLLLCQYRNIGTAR

Right cardiac atrium [13] = assay: Reversible negative ionotropic activity in electrically-paced Cavia porcellus (guinea pig) right atrium incubated for few seconds followed by compound washout measured after 3 hr by isometric transducer analysis in absence of benzalkonium/prazosin; format: functional, tissue-based
Right cardiac atrium [14] = assay: Negative ionotropic activity in electrically-paced Cavia porcellus (guinea pig) right atrium assessed as effect on force measured immediately by isometric transducer analysis in presence of benzalkonium/prazosin relative to arecaidine propargyl ester; format: functional
[15] = target: Muscarinic acetylcholine receptor M3 (Homo sapiens) (UniProt P20309); assay: Binding affinity to Homo sapiens (human) recombinant muscarinic M3 receptor expressed in CHO cells assessed as [35S]GTPgammaS binding; format: functional, cell-based
Muscarinic acetylcholine receptor M3 (Homo sapiens), sequence (P20309 whole entry, looked up): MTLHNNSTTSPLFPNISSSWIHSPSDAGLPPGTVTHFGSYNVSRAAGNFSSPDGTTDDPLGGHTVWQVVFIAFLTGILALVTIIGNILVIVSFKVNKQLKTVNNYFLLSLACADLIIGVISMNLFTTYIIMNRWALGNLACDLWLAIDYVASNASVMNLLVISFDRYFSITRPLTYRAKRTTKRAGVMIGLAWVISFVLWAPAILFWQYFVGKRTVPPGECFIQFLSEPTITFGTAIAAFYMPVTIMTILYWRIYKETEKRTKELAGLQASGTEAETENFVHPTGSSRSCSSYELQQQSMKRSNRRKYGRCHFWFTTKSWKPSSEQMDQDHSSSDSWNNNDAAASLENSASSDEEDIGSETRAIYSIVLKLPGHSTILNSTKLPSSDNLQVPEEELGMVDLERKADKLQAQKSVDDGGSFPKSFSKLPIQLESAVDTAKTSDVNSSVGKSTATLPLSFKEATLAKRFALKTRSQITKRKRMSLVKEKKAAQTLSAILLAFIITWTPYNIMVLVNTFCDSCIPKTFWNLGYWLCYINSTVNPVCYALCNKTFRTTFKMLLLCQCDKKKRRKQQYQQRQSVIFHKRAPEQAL

Left cardiac atrium [16] = assay: Negative ionotropic activity in electrically-paced Cavia porcellus (guinea pig) left atrium measured immediately by isometric transducer analysis in presence of 4-DAMP mustard; format: functional, tissue-based
Right cardiac atrium [17] = assay: Negative ionotropic activity in electrically-paced Cavia porcellus (guinea pig) right atrium measured immediately by isometric transducer analysis in presence of prazosin; format: functional, tissue-based
Left cardiac atrium [18] = assay: Negative ionotropic activity in electrically-paced Cavia porcellus (guinea pig) left atrium measured immediately by isometric transducer analysis in presence of AM 630; format: functional, tissue-based
Left cardiac atrium [19] = assay: Negative ionotropic activity in electrically-paced Cavia porcellus (guinea pig) left atrium measured after 60 min by isometric transducer analysis in presence of ANR 83; format: functional, tissue-based
Right cardiac atrium [20] = assay: Negative […] activity in electrically-paced Cavia porcellus (guinea pig) right atrium measured immediately by isometric transducer analysis in presence of ANR 83; format: functional, tissue-based
Right cardiac atrium [21] = assay: Negative ionotropic activity in electrically-paced Cavia porcellus (guinea pig) right atrium measured immediately by isometric transducer analysis in presence of bupranolol; format: functional, tissue-based
Left cardiac atrium [22] = assay: Negative […] activity in electrically-paced Cavia porcellus (guinea pig) left atrium measured immediately by isometric transducer analysis in presence of dihydroergocristine; format: functional, tissue-based
Right cardiac atrium [23] = assay: Negative ionotropic activity in electrically-paced Cavia porcellus (guinea pig) right atrium measured immediately by isometric transducer analysis in presence of pimozide; format: functional, tissue-based
Left cardiac atrium [24] = assay: Negative […] activity in electrically-paced Cavia porcellus (guinea pig) left atrium measured immediately by isometric transducer analysis in presence of naloxane; format: functional, tissue-based
Left cardiac atrium [25] = assay: Negative ionotropic activity in electrically-paced Cavia porcellus (guinea pig) left atrium measured after 60 min by isometric transducer analysis in presence of prazosin; format: functional, tissue-based
Right cardiac atrium [26] = assay: Negative ionotropic activity in electrically-paced Cavia porcellus (guinea pig) right atrium measured after 60 min by isometric transducer analysis in presence of pimozide; format: functional, tissue-based
Right cardiac atrium [27] = assay: Negative […] activity in electrically-paced Cavia porcellus (guinea pig) right atrium measured immediately by isometric transducer analysis in presence of 4-DAMP mustard; format: functional, tissue-based
Left cardiac atrium [28] = assay: Negative […] activity in electrically-paced Cavia porcellus (guinea pig) left atrium measured immediately by isometric transducer analysis in presence of atropine; format: functional, tissue-based
Right cardiac atrium [29] = assay: Negative ionotropic activity in electrically-paced Cavia porcellus (guinea pig) right atrium measured after 60 min by isometric transducer analysis in presence of 4-DAMP mustard; format: functional, tissue-based
Right cardiac atrium [30] = assay: Negative ionotropic activity in electrically-paced Cavia porcellus (guinea pig) right atrium measured immediately by isometric transducer analysis in presence of dihydroergocristine; format: functional, tissue-based
Left cardiac atrium [31] = assay: Negative […] activity in electrically-paced Cavia porcellus (guinea pig) left atrium measured immediately by isometric transducer analysis in presence of methoctramine; format: functional, tissue-based
Right cardiac atrium [32] = assay: Negative ionotropic activity in electrically-paced Cavia porcellus (guinea pig) right atrium assessed as effect on force measured immediately by isometric transducer analysis in absence of benzalkonium/prazosin relative to arecaidine propargyl ester; format: functional
Left cardiac atrium [33] = assay: Negative ionotropic activity in electrically-paced Cavia porcellus (guinea pig) left atrium measured after 60 min by isometric transducer analysis in presence of AM 630; format: functional, tissue-based
Right cardiac atrium [34] = assay: Negative […] activity in electrically-paced Cavia porcellus (guinea pig) right atrium measured immediately by isometric transducer analysis in presence of AM 251; format: functional, tissue-based
Left cardiac atrium [35] = assay: Negative ionotropic activity in electrically-paced Cavia porcellus (guinea pig) left atrium measured after 60 min by isometric transducer analysis in presence of 4-DAMP mustard; format: functional, tissue-based

COc1ccccc1CN1CCC(C2CCN(C(=O)CCCCCCC(=O)N3CCC(C4CCN(Cc5ccccc5OC)CC4)CC3)CC2)CC1 [PIPERTRAMINE AMIDE]
Activity (Left cardiac atrium [1]): Active | Efficacy (Right cardiac atrium [2]): 42% | Activity (Left cardiac atrium [3]): Active | Activity (Right cardiac atrium [4]): Active | EC50 (Right cardiac atrium [5]): 1.51 nM | Activity (Right cardiac atrium [6]): Active | Activity (Right cardiac atrium [7]): Active | EC50 (Right cardiac atrium [8]): 1.55 nM | Efficacy (Right cardiac atrium [9]): 78% | EC50 (Left cardiac atrium [10]): 0.0316 nM | Activity (Right cardiac atrium [11]): inactive | Activity [12]: Active | Activity (Right cardiac atrium [13]): Active | Efficacy (Right cardiac atrium [14]): 81% | Activity [15]: inactive | Activity (Left cardiac atrium [16]): inactive | Activity (Right cardiac atrium [17]): Active | Activity (Left cardiac atrium [18]): Active | Activity (Left cardiac atrium [19]): Active | Activity (Right cardiac atrium [20]): Active | Activity (Right cardiac atrium [21]): Active | Activity (Left cardiac atrium [22]): Active | Activity (Right cardiac atrium [23]): Active | Activity (Left cardiac atrium [24]): Active | Activity (Left cardiac atrium [25]): Active | Activity (Right cardiac atrium [26]): Active | Activity (Right cardiac atrium [27]): inactive | Activity (Left cardiac atrium [28]): inactive | Activity (Right cardiac atrium [29]): Active | Activity (Right cardiac atrium [30]): Active | Activity (Left cardiac atrium [31]): inactive | Efficacy (Right cardiac atrium [32]): 79% | Activity (Left cardiac atrium [33]): Active | Activity (Right cardiac atrium [34]): Active | Activity (Left cardiac atrium [35]): Active

COc1ccccc1CN1CCC(C2CCN(CCCCCCCCN3CCC(C4CCN(Cc5ccccc5OC)CC4)CC3)CC2)CC1 [PIPERTRAMINE]
Activity (Right cardiac atrium [4]): Active | Efficacy (Right cardiac atrium [9]): 71% | Activity [12]: Active | Activity [15]: inactive | Activity (Left cardiac atrium [19]): Active | Activity (Left cardiac atrium [25]): Active | Activity (Right cardiac atrium [26]): Active | Activity (Right cardiac atrium [29]): Active | Activity (Left cardiac atrium [33]): Active | Activity (Left cardiac atrium [35]): Active
